Columns and labels:
[1] = Test B: In-Vitro Competitive Aortic Tissue Binding Assay; parameters: species or system Han Wistar rats; conditions: 100 μM compound, competition with [14C]-labelled WO2010/128324 Ex. 3 in rat aortic homogenate; four categories
Experimental: To assist the design of DPP1 inhibitors with a decreased risk of binding to elastin rich tissues, such as the aorta, the in-vitro competitive aortic binding assay disclosed below (Test B) was developed to facilitate the selection process.
Test B: In-Vitro Competitive Aortic Tissue Binding Assay
Aortic homogenate was prepared from the thoracic aortae of Han Wistar rats. Freshly isolated to thoracic aortae were frozen, and later thawed and stripped of non-elastic material. […] Homogenate concentration was adjusted to 30 mg/mL in Puck's saline, and aliquots were stored at −80° C. until use. Positive and negative control compounds and test compounds were made up to 100 mM in DMSO, and added to 1 mL aliquots of aortic homogenate in Puck's saline for a final concentration of 100 μM. Homogenate samples were pre-incubated with test compounds at 37° C., rotating, overnight. [^14C]4-Amino-N-[(1S)-1-cyano-2-(4′-cyanobiphenyl-4-yl)ethyl]tetrahydro-2H-pyran-4-carboxamide was then added to all samples to a final concentration of 100 μM, and samples were incubated at 37° C., rotating, for a further 2 h. Protein was precipitated from each sample by the addition of 10 mL acetone, pre-chilled to −20° C. Samples were left overnight at −20° C. to allow complete precipitation. Precipitate was pelleted by centrifugation at 4,500×g at 4° C. for 20 min, an aliquot of supernatant was removed for analysis, and the remainder of the supernatant discarded. Precipitate was washed by resuspension in 10 mL 80% methanol in distilled water, and re-pelleted by centrifugation at 4,500×g at 4° C. for 20 min. […] After final wash, precipitate was air-dried, and dissolved overnight in 1 mL NCSII Tissue Solubiliser. 1 mL aliquots of supernatants were added to 5 mL Ultima Gold scintillation fluid (Perkin Elmer, Mass., U.S.A.), and 1 mL solubilised pellets were added to 5 mL Hionic-Fluor scintillation fluid (Perkin Elmer, Mass., U.S.A.). Radioactivity of samples was determined on a Beckman LS6500 multipurpose scintillation counter (Beckman Coulter, Ind., U.S.A.). […] Duplicate samples were tested for each compound on each experimental occasion, and at least two experiments were run for each test compound. […] 1-way ANOVA and Bonferroni's multiple comparison tests were performed to calculate significance of differences from vehicle control.

[2] = molecular target: Recombinant Human (RH) DPP1 (Homo sapiens (Human), UniProt P53634); test: Test A1: Fluorescence Assay for Recombinant Human (RH) DPP1; assay type: biochemical; conditions: Test A1, rhDPP1, H-Gly-Arg-AMC substrate (Examples 1-35)
Experimental: Test A1: Fluorescence Assay for Recombinant Human (RH) DPP1
The activity of DPP1 was determined by measuring the enzymatic release of aminomethyl coumarin (AMC) from the peptide substrate (H-Gly-Arg-AMC), which leads to an increase in fluorescence intensity at λex=350 nm and λem=450 nm. The assay was carried out in black 384 well plates in a final volume of 50 μl at 22° C. The assay conditions contained the following: 25 mM piperazine buffer pH 5.0; 50 mM NaCl, 5 mM DTT; 0.01% (v/v) Triton X-100; 100 μM H-Gly-Arg-AMC and rhDPP1 (˜50 pM). […] Routinely, inhibitors were pre-incubated with rhDPP1 for 30-60 min prior to the addition of the peptide substrate to start the reaction for a further 60 min at 22° C.

[3] = rat quantitative whole-body autoradiography (QWBA) studies; assay type: in vivo
[4] = described in literature (Schmidt et al. 1984); cited from earlier work

Chain of Recombinant Human (RH) DPP1 (P53634 231-394): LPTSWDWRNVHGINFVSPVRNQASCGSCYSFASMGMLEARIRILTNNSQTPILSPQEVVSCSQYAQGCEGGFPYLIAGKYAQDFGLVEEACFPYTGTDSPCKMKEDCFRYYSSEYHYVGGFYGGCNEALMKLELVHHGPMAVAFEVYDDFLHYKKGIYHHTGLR
Chain of Recombinant Human (RH) DPP1 (P53634 25-143): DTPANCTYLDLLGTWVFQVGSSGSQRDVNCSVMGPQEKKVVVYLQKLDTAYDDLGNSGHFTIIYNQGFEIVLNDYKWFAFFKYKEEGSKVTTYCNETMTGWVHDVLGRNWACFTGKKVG
Chain of Recombinant Human (RH) DPP1 (P53634 395-463): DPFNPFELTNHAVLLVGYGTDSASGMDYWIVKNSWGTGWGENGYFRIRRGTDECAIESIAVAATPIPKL

SMILES | Aortic Tissue Binding [1] | also measured
Cn1c(=O)oc2ccc(-c3ccc(C[C@@H](C#N)NC(=O)[C@@H]4CNCCCO4)cc3)cc21 [Example 2, (2S)—N-{(1S)-1-Cyano-2-[4-(3-methyl-2-oxo-2,3-dihydro-1,3-benzoxazol-5-yl)phenyl]ethyl}-1,4-oxazepane-2-carboxamide] | No binder | 
N#C[C@H](Cc1ccc(-c2ccc(C(N)=O)c(F)c2)cc1)NC(=O)[C@@H]1CNCCCO1 [Example 23, (2S)-N-[(1S)-2-(4′-Carbamoyl-3′-fluorobiphenyl-4-yl)-1-cyanoethyl]-1,4-oxazepane-2-carboxamide] |  | DPP1 activity, pIC50 [2]: 7.17
CS(=O)(=O)c1ccc(-c2ccc(C[C@@H](C#N)NC(=O)[C@@H]3CNCCCO3)cc2)cc1 [Example 30, (2S)-N-{(1S)-1-Cyano-2-[4′-(methylsulfonyl)biphenyl-4-yl]ethyl}-1,4-oxazepane-2-carboxamide] |  | DPP1 activity, pIC50 [2]: 7.43
Cn1c(=O)oc2ccc(-c3ccc(C[C@@H](C#N)NC(=O)C4(N)CCOCC4)cc3)cc21 [WO2010/128324 (Example 17)] | Strong binder | 
CC(c1ccc(Cl)c(Cl)c1)N1N=C(N)CC1=O (stereo not drawn) [muzolimine] |  | retention in the aorta in QWBA [4]: retained selectively in the aorta

Second part, led by results:

Aortic Tissue Binding [1] | SMILES | also measured
Binder | N#Cc1ccc(-c2ccc(C[C@@H](C#N)NC(=O)[C@@H]3CCCCN3)cc2)cc1 [WO2009/074829 (Example 24)] | 
Medium binder | Cn1c(=O)oc2ccc(-c3ccc(C[C@@H](C#N)NC(=O)[C@@H]4CCCCN4)cc3)cc21 [WO2009/074829 (Example 96)] | 
Strong binder (reference) | N#Cc1ccc(-c2ccc(C[C@@H](C#N)NC(=O)C3(N)CCOCC3)cc2)cc1 [WO2010/128324 (Ex. 3), 4-amino-N-[(1S)-1-cyano-2-(4′-cyanobiphenyl-4-yl)ethyl]tetrahydro-2H-pyran-4-carboxamide] | aortic retention in QWBA [3]: high level of aortic retention
